Measurements taken from the NIST ThermoML archive (doi:10.1016/j.fluid.2005.05.023).
± gives the expanded uncertainty stated by the source.

Test: xn = mol fraction of the nth substance listed
Conditions: Liquid, Vibrating tube method

Cc1ccccc1 [toluene] + CCO
mass density [kg/m3]
Conditions | 100 kPa | 5000 kPa | 10000 kPa | 15000 kPa | 20000 kPa | 25000 kPa | 30000 kPa | 35000 kPa | 40000 kPa | 45000 kPa
313.15 K, x2 = 0.625 | – | – | – | – | – | – | – | – | – | 846 ± 0.4
313.15 K, x2 = 0.75 | – | – | – | – | – | – | – | – | – | 835.8 ± 0.4
313.15 K, x2 = 0.875 | – | – | – | – | – | – | – | – | – | 823.2 ± 0.5
323.15 K, x2 = 0 | 838.6 ± 0.2 | 843 ± 0.3 | 847.2 ± 0.3 | 851.3 ± 0.3 | 855.2 ± 0.3 | 858.9 ± 0.3 | 862.5 ± 0.3 | 866 ± 0.3 | 869.4 ± 0.3 | 872.6 ± 0.4
323.15 K, x2 = 0.125 | 832.1 ± 0.3 | 836.5 ± 0.3 | 840.8 ± 0.3 | 845 ± 0.3 | 848.9 ± 0.3 | 852.7 ± 0.3 | 856.3 ± 0.3 | 859.9 ± 0.4 | 863.3 ± 0.4 | 866.5 ± 0.4
323.15 K, x2 = 0.25 | 825.8 ± 0.3 | 830.3 ± 0.3 | 834.7 ± 0.3 | 838.9 ± 0.3 | 842.9 ± 0.3 | 846.7 ± 0.3 | 850.4 ± 0.3 | 853.9 ± 0.4 | 857.3 ± 0.4 | 860.6 ± 0.4
323.15 K, x2 = 0.375 | 819.1 ± 0.3 | 823.6 ± 0.3 | 828 ± 0.3 | 832.3 ± 0.3 | 836.3 ± 0.3 | 840.2 ± 0.3 | 843.8 ± 0.4 | 847.4 ± 0.4 | 850.9 ± 0.4 | 854.2 ± 0.4
323.15 K, x2 = 0.5 | 811.3 ± 0.3 | 815.9 ± 0.3 | 820.4 ± 0.3 | 824.7 ± 0.3 | 828.8 ± 0.3 | 832.6 ± 0.3 | 836.4 ± 0.4 | 840 ± 0.4 | 843.4 ± 0.4 | 846.7 ± 0.4
323.15 K, x2 = 0.625 | 802.5 ± 0.3 | 807.1 ± 0.3 | 811.6 ± 0.3 | 815.9 ± 0.3 | 820 ± 0.3 | 824 ± 0.4 | 827.7 ± 0.4 | 831.3 ± 0.4 | 834.8 ± 0.4 | 838.1 ± 0.4
323.15 K, x2 = 0.75 | 792.1 ± 0.3 | 796.8 ± 0.3 | 801.3 ± 0.3 | 805.7 ± 0.3 | 809.8 ± 0.4 | 813.8 ± 0.4 | 817.5 ± 0.4 | 821.2 ± 0.4 | 824.7 ± 0.4 | 828.1 ± 0.5
323.15 K, x2 = 0.875 | 779.3 ± 0.3 | 784.1 ± 0.3 | 788.7 ± 0.4 | 793.1 ± 0.4 | 797.3 ± 0.4 | 801.3 ± 0.4 | 805.1 ± 0.4 | 808.8 ± 0.5 | 812.3 ± 0.5 | 815.7 ± 0.5
333.15 K, x2 = 0 | 828.8 ± 0.2 | 833.5 ± 0.3 | 838 ± 0.3 | 842.3 ± 0.3 | 846.4 ± 0.3 | 850.4 ± 0.3 | 854.2 ± 0.3 | 857.9 ± 0.3 | 861.4 ± 0.4 | 864.8 ± 0.4
333.15 K, x2 = 0.125 | 822 ± 0.3 | 826.7 ± 0.3 | 831.4 ± 0.3 | 835.8 ± 0.3 | 839.9 ± 0.3 | 843.9 ± 0.3 | 847.8 ± 0.3 | 851.5 ± 0.4 | 855.1 ± 0.4 | 858.5 ± 0.4
333.15 K, x2 = 0.25 | 815.6 ± 0.3 | 820.4 ± 0.3 | 825.1 ± 0.3 | 829.5 ± 0.3 | 833.7 ± 0.3 | 837.8 ± 0.3 | 841.7 ± 0.4 | 845.4 ± 0.4 | 849 ± 0.4 | 852.5 ± 0.4
333.15 K, x2 = 0.375 | 808.8 ± 0.3 | 813.6 ± 0.3 | 818.4 ± 0.3 | 822.9 ± 0.3 | 827.1 ± 0.3 | 831.2 ± 0.3 | 835.1 ± 0.4 | 838.9 ± 0.4 | 842.5 ± 0.4 | 846 ± 0.4
333.15 K, x2 = 0.5 | 801.2 ± 0.3 | 806.1 ± 0.3 | 810.8 ± 0.3 | 815.4 ± 0.3 | 819.7 ± 0.3 | 823.8 ± 0.4 | 827.7 ± 0.4 | 831.5 ± 0.4 | 835.1 ± 0.4 | 838.6 ± 0.4
333.15 K, x2 = 0.625 | 792.3 ± 0.3 | 797.2 ± 0.3 | 802.1 ± 0.3 | 806.7 ± 0.3 | 811 ± 0.4 | 815.2 ± 0.4 | 819.1 ± 0.4 | 822.9 ± 0.4 | 826.6 ± 0.4 | 830.1 ± 0.4
333.15 K, x2 = 0.75 | 782 ± 0.3 | 787 ± 0.3 | 791.9 ± 0.3 | 796.5 ± 0.4 | 800.9 ± 0.4 | 805.1 ± 0.4 | 809.1 ± 0.4 | 812.9 ± 0.4 | 816.6 ± 0.5 | 820.1 ± 0.5
333.15 K, x2 = 0.875 | 769.5 ± 0.3 | 774.6 ± 0.3 | 779.5 ± 0.4 | 784.2 ± 0.4 | 788.7 ± 0.4 | 792.9 ± 0.4 | 796.9 ± 0.4 | 800.7 ± 0.5 | 804.4 ± 0.5 | 808 ± 0.5
343.15 K, x2 = 0 | 819.2 ± 0.2 | 824.1 ± 0.3 | 829 ± 0.3 | 833.5 ± 0.3 | 837.9 ± 0.3 | 842.1 ± 0.3 | 846 ± 0.3 | 849.9 ± 0.4 | 853.5 ± 0.4 | 857 ± 0.4
343.15 K, x2 = 0.125 | 811.9 ± 0.3 | 817 ± 0.3 | 821.9 ± 0.3 | 826.6 ± 0.3 | 831.1 ± 0.3 | 835.3 ± 0.3 | 839.3 ± 0.4 | 843.2 ± 0.4 | 846.9 ± 0.4 | 850.5 ± 0.4
343.15 K, x2 = 0.25 | 805.3 ± 0.3 | 810.5 ± 0.3 | 815.5 ± 0.3 | 820.3 ± 0.3 | 824.8 ± 0.3 | 829 ± 0.3 | 833.1 ± 0.4 | 837 ± 0.4 | 840.8 ± 0.4 | 844.4 ± 0.4
343.15 K, x2 = 0.375 | 798.5 ± 0.3 | 803.7 ± 0.3 | 808.8 ± 0.3 | 813.6 ± 0.3 | 818.1 ± 0.3 | 822.4 ± 0.4 | 826.5 ± 0.4 | 830.5 ± 0.4 | 834.2 ± 0.4 | 837.9 ± 0.4
343.15 K, x2 = 0.5 | 790.7 ± 0.3 | 796 ± 0.3 | 801.1 ± 0.3 | 806 ± 0.3 | 810.6 ± 0.3 | 814.9 ± 0.4 | 819 ± 0.4 | 823 ± 0.4 | 826.8 ± 0.4 | 830.5 ± 0.4
343.15 K, x2 = 0.625 | 781.9 ± 0.3 | 787.3 ± 0.3 | 792.5 ± 0.3 | 797.4 ± 0.3 | 802 ± 0.4 | 806.3 ± 0.4 | 810.5 ± 0.4 | 814.5 ± 0.4 | 818.3 ± 0.4 | 822 ± 0.5
343.15 K, x2 = 0.75 | 771.8 ± 0.3 | 777.2 ± 0.3 | 782.5 ± 0.3 | 787.4 ± 0.4 | 792 ± 0.4 | 796.4 ± 0.4 | 800.6 ± 0.4 | 804.6 ± 0.4 | 808.5 ± 0.5 | 812.2 ± 0.5
343.15 K, x2 = 0.875 | 759.6 ± 0.3 | 765 ± 0.3 | 770.3 ± 0.4 | 775.3 ± 0.4 | 780 ± 0.4 | 784.4 ± 0.4 | 788.6 ± 0.4 | 792.7 ± 0.5 | 796.5 ± 0.5 | 800.2 ± 0.5
353.15 K, x2 = 0 | 809.4 ± 0.2 | 814.7 ± 0.3 | 819.9 ± 0.3 | 824.7 ± 0.3 | 829.3 ± 0.3 | 833.7 ± 0.3 | 837.9 ± 0.3 | 841.9 ± 0.4 | 845.7 ± 0.4 | 849.4 ± 0.4
353.15 K, x2 = 0.125 | 801.7 ± 0.3 | 807.2 ± 0.3 | 812.5 ± 0.3 | 817.4 ± 0.3 | 822.2 ± 0.3 | 826.7 ± 0.3 | 830.9 ± 0.4 | 835 ± 0.4 | 838.9 ± 0.4 | 842.7 ± 0.4
353.15 K, x2 = 0.25 | – | 800.4 ± 0.3 | 805.8 ± 0.3 | 810.9 ± 0.3 | 815.6 ± 0.3 | 820.2 ± 0.4 | 824.5 ± 0.4 | 828.6 ± 0.4 | 832.6 ± 0.4 | 836.4 ± 0.4
353.15 K, x2 = 0.375 | – | 793.4 ± 0.3 | 798.9 ± 0.3 | 804 ± 0.3 | 808.8 ± 0.3 | 813.4 ± 0.4 | 817.8 ± 0.4 | 821.9 ± 0.4 | 825.9 ± 0.4 | 829.7 ± 0.4
353.15 K, x2 = 0.5 | – | 785.7 ± 0.3 | 791.3 ± 0.3 | 796.4 ± 0.3 | 801.3 ± 0.3 | 805.9 ± 0.4 | 810.3 ± 0.4 | 814.5 ± 0.4 | 818.5 ± 0.4 | 822.3 ± 0.5
353.15 K, x2 = 0.625 | – | 777 ± 0.3 | 782.6 ± 0.3 | 787.9 ± 0.3 | 792.8 ± 0.4 | 797.4 ± 0.4 | 801.8 ± 0.4 | 806 ± 0.4 | 810 ± 0.4 | 813.9 ± 0.5
353.15 K, x2 = 0.75 | – | 767.1 ± 0.3 | 772.7 ± 0.3 | 778 ± 0.4 | 782.9 ± 0.4 | 787.6 ± 0.4 | 792 ± 0.4 | 796.3 ± 0.4 | 800.3 ± 0.5 | 804.2 ± 0.5
353.15 K, x2 = 0.875 | – | 755.1 ± 0.3 | 760.8 ± 0.4 | 766.1 ± 0.4 | 771.1 ± 0.4 | 775.8 ± 0.4 | 780.3 ± 0.5 | 784.5 ± 0.5 | 788.6 ± 0.5 | 792.4 ± 0.5
